From ChEMBL document CHEMBL1909046, “DrugMatrix in vitro pharmacology data” come the findings set out here.

Data set [1] has as its target 5-hydroxytryptamine receptor 6 (Homo sapiens, UniProt P50406). It is filed as cell membranes, HeLa, Membrane.
The next data set concerns the target Glycine receptor (Rattus norvegicus, UniProt P22771+P24524+P07727+P20781). It is filed as cell membranes, Wistar, Spinal cord, Membrane.
Data set [2] deals with T1, Cysteinyl leukotriene receptor 1 (Homo sapiens, UniProt Q9Y271).
T1 sequence (Q9Y271 whole entry): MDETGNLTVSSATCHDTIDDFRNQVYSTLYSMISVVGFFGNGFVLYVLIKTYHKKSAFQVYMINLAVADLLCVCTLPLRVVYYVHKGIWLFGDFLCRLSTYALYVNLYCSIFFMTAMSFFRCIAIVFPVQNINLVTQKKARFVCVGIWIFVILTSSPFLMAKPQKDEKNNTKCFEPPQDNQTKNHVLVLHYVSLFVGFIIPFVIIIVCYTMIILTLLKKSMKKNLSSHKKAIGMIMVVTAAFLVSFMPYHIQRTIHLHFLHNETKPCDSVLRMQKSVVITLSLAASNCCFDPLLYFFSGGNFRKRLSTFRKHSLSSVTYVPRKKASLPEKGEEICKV
It is filed as cell membranes, CHO-K1, Membrane.

In a further data set the target is Melanocortin receptor 5 (Homo sapiens, UniProt P33032). It is filed as cell membranes, HEK293, Membrane. The note with it: hek293.
The target of another data set is T2, Neutrophil elastase (Homo sapiens, UniProt P08246).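 Also: inhibition of neutrophil elastase enzyme activity, measured with a p-nitroanilide-linked peptide substrate.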
T2 sequence (P08246 whole entry): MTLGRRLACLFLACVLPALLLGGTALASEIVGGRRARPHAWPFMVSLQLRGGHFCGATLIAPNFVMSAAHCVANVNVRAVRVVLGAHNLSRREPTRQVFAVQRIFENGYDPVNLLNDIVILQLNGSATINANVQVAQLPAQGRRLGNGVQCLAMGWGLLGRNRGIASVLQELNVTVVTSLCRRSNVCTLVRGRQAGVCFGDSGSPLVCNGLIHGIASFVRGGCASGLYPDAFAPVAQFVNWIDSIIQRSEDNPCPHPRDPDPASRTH
It is filed as tissue-based.

A further data set addresses Cytochrome P450 2C9 (Homo sapiens, UniProt P11712). The note with it: bti-tn-5b1-4.
In a further data set the target is T3, Estrogen receptor (Homo sapiens, UniProt P03372).
T3 sequence (P03372 whole entry): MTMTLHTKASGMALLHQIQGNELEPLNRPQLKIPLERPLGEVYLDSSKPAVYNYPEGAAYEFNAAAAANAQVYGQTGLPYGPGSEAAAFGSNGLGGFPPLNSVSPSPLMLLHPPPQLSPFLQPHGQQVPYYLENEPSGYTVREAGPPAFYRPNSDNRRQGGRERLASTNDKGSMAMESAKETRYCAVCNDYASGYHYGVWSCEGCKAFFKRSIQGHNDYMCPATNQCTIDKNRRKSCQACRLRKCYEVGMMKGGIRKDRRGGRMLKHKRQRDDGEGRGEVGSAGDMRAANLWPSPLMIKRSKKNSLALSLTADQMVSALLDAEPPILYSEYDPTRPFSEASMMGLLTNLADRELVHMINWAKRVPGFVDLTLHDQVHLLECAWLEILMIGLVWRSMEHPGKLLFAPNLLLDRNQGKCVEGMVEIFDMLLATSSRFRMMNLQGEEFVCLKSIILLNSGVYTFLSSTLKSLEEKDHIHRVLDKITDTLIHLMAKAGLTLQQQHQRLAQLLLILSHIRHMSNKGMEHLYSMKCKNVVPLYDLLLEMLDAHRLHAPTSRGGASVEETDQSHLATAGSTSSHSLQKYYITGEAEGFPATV
Particulars: sf9.
Also: in other assays of this panel Not Active means under 50% inhibition at 10 µM.

Sequence of Melanocortin receptor 5 (P33032 whole entry): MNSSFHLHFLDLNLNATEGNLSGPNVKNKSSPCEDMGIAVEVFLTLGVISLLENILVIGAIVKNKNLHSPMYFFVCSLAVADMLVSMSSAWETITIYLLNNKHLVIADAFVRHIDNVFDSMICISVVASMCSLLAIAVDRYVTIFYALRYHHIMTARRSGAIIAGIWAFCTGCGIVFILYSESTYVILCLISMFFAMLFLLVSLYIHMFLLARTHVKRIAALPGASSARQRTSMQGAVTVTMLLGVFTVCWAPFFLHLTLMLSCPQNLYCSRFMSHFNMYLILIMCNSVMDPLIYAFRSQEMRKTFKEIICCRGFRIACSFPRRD
Sequence of Cytochrome P450 2C9 (P11712 whole entry): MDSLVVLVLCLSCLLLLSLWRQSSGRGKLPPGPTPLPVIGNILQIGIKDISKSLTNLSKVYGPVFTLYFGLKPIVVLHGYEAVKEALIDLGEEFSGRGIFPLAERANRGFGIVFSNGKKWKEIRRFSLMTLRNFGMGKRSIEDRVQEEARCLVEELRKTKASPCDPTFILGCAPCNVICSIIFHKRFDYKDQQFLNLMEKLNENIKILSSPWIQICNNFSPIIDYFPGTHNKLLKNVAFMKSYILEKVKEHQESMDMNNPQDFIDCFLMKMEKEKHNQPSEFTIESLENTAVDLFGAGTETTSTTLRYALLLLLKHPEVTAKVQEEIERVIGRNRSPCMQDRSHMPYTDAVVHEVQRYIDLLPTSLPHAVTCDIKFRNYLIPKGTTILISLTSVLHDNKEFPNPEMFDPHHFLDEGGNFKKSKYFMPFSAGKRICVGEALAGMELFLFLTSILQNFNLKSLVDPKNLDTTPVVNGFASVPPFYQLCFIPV
Sequence of 5-hydroxytryptamine receptor 6 (P50406 whole entry): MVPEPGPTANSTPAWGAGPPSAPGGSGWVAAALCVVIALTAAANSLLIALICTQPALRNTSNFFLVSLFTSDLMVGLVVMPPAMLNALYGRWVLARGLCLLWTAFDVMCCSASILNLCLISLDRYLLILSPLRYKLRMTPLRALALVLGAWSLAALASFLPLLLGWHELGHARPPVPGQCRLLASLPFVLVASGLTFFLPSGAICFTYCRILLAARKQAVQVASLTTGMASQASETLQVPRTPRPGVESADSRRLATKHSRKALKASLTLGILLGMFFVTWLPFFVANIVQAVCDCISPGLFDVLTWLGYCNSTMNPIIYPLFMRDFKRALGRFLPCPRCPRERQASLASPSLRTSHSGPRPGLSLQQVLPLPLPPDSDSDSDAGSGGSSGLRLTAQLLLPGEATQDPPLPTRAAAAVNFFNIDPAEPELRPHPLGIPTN

As for `COc1c(C)c2c(c(O)c1C/C=C(\C)CCC(=O)O)C(=O)OC2` [MYCOPHENOLIC ACID], the IC50 result (in data set [1] (hela); against Glycine receptor; in data set [2] (cho-k1); against Melanocortin receptor 5; on Neutrophil elastase; at Cytochrome P450 2C9) was “Not Active” each time. The IC50 entry on Estrogen receptor is listed as “Not Active”. At Cytochrome P450 2C9, the inhibitory constant (Ki) entry was “Not Active”.
With `O=c1ncn2nc(Sc3ccc(F)cc3F)ccc2c1-c1c(Cl)cccc1Cl` [NEFLAMAPIMOD], the IC50 result (in data set [1] (hela); on Glycine receptor; in data set [2] (cho-k1); against Melanocortin receptor 5; on Neutrophil elastase; at Cytochrome P450 2C9) was “Not Active” throughout. Further, on Estrogen receptor, the IC50 entry is recorded as “Not Active”. For the same compound, the Ki result at Cytochrome P450 2C9 is recorded as “Not Active”.
Take `CN1CCN(CCCN2c3ccccc3Sc3ccc(Cl)cc32)CC1` [PROCHLORPERAZINE]: the 50% inhibitory concentration (IC50) in data set [1] (read-out: IC50) is 0.267 µM; against Glycine receptor, “Not Active”; in data set [2] (cho-k1) it was “Not Active”; on Melanocortin receptor 5, “Not Active”; on Neutrophil elastase, “Not Active”; on Cytochrome P450 2C9, “Not Active”. Also, the IC50 result against Estrogen receptor is on record as “Not Active”. Also, the figures for the Ki (in data set [1] (read-out: Ki); on Cytochrome P450 2C9) were 0.124 µM and “Not Active”, respectively.
With `Cc1nc2n(c(=O)c1CCN1CCC(c3noc4cc(F)ccc34)CC1)CCCC2` [RISPERIDONE], the IC50 result (in data set [1] (hela); at Glycine receptor; in data set [2] (cho-k1); on Melanocortin receptor 5; against Neutrophil elastase; at Cytochrome P450 2C9) was “Not Active” throughout. Also, the IC50 result on Estrogen receptor is “Not Active”. Moreover, the Ki entry at Cytochrome P450 2C9 is “Not Active”.
With `C=CCC1(C(C)CCC)C(=O)NC(=O)NC1=O` (centres undefined) [SECOBARBITAL], the IC50 entry (in data set [1] (hela); against Glycine receptor; in data set [2] (cho-k1); on Melanocortin receptor 5; at Neutrophil elastase; against Cytochrome P450 2C9) was “Not Active” throughout. At Estrogen receptor, the IC50 entry was “Not Active”. Besides, on Cytochrome P450 2C9, the Ki entry was “Not Active”.
Regarding `C[C@@H]1CN(c2c(F)c(N)c3c(=O)c(C(=O)O)cn(C4CC4)c3c2F)C[C@H](C)N1` [SPARFLOXACIN], the IC50 result (in data set [1] (hela); on Glycine receptor; in data set [2] (cho-k1); on Melanocortin receptor 5; against Neutrophil elastase; on Cytochrome P450 2C9) was “Not Active” in each case. For the same compound, the IC50 result on Estrogen receptor is listed as “Not Active”. Besides, the Ki entry at Cytochrome P450 2C9 is “Not Active”.
With `Cc1noc(NS(=O)(=O)c2ccc(N)cc2)c1C` [SULFISOXAZOLE], the IC50 result (in data set [1] (hela); against Glycine receptor; in data set [2] (cho-k1); on Melanocortin receptor 5; at Neutrophil elastase; against Cytochrome P450 2C9) was “Not Active” in each case. The concentration for half-maximal inhibition (IC50) result against Estrogen receptor is “Not Active”. Further, the Ki entry on Cytochrome P450 2C9 was “Not Active”.
Turning to `CSc1ccc(/C=C2/C(C)=C(CC(=O)O)c3cc(F)ccc32)cc1` [SULINDAC SULFIDE], the IC50 result is “Not Active” in data set [1] (hela); “Not Active” against Glycine receptor; 29.4 µM in data set [2] (read-out: IC50); “Not Active” at Melanocortin receptor 5; “Not Active” against Neutrophil elastase; “Not Active” against Cytochrome P450 2C9. For the same compound, at Estrogen receptor, the IC50 result was “Not Active”. For the same compound, the Ki was 14.7 µM in data set [2] (read-out: Ki) and “Not Active” at Cytochrome P450 2C9.
For `Nc1c2c(nc3ccccc13)CCCC2` [TACRINE], the IC50 result (in data set [1] (hela); against Glycine receptor; in data set [2] (cho-k1); against Melanocortin receptor 5; against Neutrophil elastase; on Cytochrome P450 2C9) was “Not Active” each time. For the same compound, the IC50 entry against Estrogen receptor is “Not Active”. Also, the Ki entry at Cytochrome P450 2C9 is recorded as “Not Active”.
Turning to `CC(C)N1CCN(c2ccc(OCC3COC(Cn4cncn4)(c4ccc(Cl)cc4Cl)O3)cc2)CC1` (centres undefined) [TERCONAZOLE], the IC50 result (in data set [1] (hela); on Glycine receptor; in data set [2] (cho-k1); against Melanocortin receptor 5; on Neutrophil elastase; on Cytochrome P450 2C9) was “Not Active” in each case. For the same compound, on Estrogen receptor, the IC50 entry was “Not Active”. Moreover, the inhibition constant (Ki) entry on Cytochrome P450 2C9 is “Not Active”.
`Nc1nc2nc[nH]c2c(=S)[nH]1` [THIOGUANINE]: the IC50 result (in data set [1] (hela); against Glycine receptor; in data set [2] (cho-k1); at Melanocortin receptor 5; at Neutrophil elastase; against Cytochrome P450 2C9) was “Not Active” each time. The IC50 entry against Estrogen receptor is on record as “Not Active”. In addition, at Cytochrome P450 2C9, the Ki result is reported as “Not Active”.
Take `Cc1cccc(N(C)C(=S)Oc2ccc3ccccc3c2)c1` [TOLNAFTATE]: the concentration for half-maximal inhibition (IC50) result (in data set [1] (hela); on Glycine receptor; in data set [2] (cho-k1); against Melanocortin receptor 5; against Neutrophil elastase; against Cytochrome P450 2C9) was “Not Active” in each case. The IC50 entry on Estrogen receptor is recorded as “Not Active”. The Ki entry on Cytochrome P450 2C9 is “Not Active”.
With `N[C@@H]1[C@H]2CN(c3nc4c(cc3F)c(=O)c(C(=O)O)cn4-c3ccc(F)cc3F)C[C@@H]12` [TROVAFLOXACIN], the IC50 entry (in data set [1] (hela); at Glycine receptor; in data set [2] (cho-k1); on Melanocortin receptor 5; on Neutrophil elastase; at Cytochrome P450 2C9) was “Not Active” each time. Moreover, the IC50 entry at Estrogen receptor is on record as “Not Active”. In addition, on Cytochrome P450 2C9, the Ki entry is given as “Not Active”.
As to `N#CC(C#N)=Cc1ccc(O)c(O)c1` [TYRPHOSTIN 23], the IC50 entry (in data set [1] (hela); on Glycine receptor; in data set [2] (cho-k1); on Melanocortin receptor 5; against Neutrophil elastase; on Cytochrome P450 2C9) was “Not Active” throughout. Further, at Estrogen receptor, the IC50 entry is given as “Not Active”. In addition, on Cytochrome P450 2C9, the Ki result is on record as “Not Active”.
For the compound `CC[C@]1(O)C[C@H]2CN(CCc3c([nH]c4ccccc34)[C@@](C(=O)OC)(c3cc4c(cc3OC)N(C=O)[C@H]3[C@@](O)(C(=O)OC)[C@H](OC(C)=O)[C@]5(CC)C=CCN6CC[C@]43[C@@H]65)C2)C1` [VINCRISTINE], the half-inhibitory concentration (IC50) entry (in data set [1] (hela); against Glycine receptor; in data set [2] (cho-k1); on Melanocortin receptor 5; against Neutrophil elastase; against Cytochrome P450 2C9) was “Not Active” throughout. For the same compound, the IC50 entry at Estrogen receptor is “Not Active”. The Ki result on Cytochrome P450 2C9 is “Not Active”.
As for `CCCOc1ccccc1-c1nc2nn[nH]c2c(=O)[nH]1` [ZAPRINAST], the IC50 entry (in data set [1] (hela); against Glycine receptor; in data set [2] (cho-k1); against Melanocortin receptor 5; against Neutrophil elastase; against Cytochrome P450 2C9) was “Not Active” in each case. The IC50 entry against Estrogen receptor is reported as “Not Active”. Besides, the Ki entry on Cytochrome P450 2C9 is “Not Active”.
Take SODIUM NITROPRUSSIDE: the IC50 entry (in data set [1] (hela); at Glycine receptor; in data set [2] (cho-k1); at Melanocortin receptor 5; on Neutrophil elastase; at Cytochrome P450 2C9) was “Not Active” in each case. The IC50 entry against Estrogen receptor was “Not Active”. The Ki result (in data set [1] (hela); at Glycine receptor; in data set [2] (cho-k1); on Melanocortin receptor 5; on Neutrophil elastase; at Cytochrome P450 2C9) was “Not Active” in each case. In addition, the inhibition constant (Ki) entry at Estrogen receptor is “Not Active”.
